What is called EC50 is the concentration at which the effect is half-maximal. A low value points to a more potent agent.

Counter-ions that a name gives are not always drawn. Some results are limits rather than exact numbers.

In the experiment the test system is SMN2 promoter. Nature of the experiment: SMN2 promoter assay (β-lactamase reporter) in NSC-34 cells. It counts as cell-based, mouse. Particulars: Mus musculus, SMN2 promoter driving β-lactamase, 12 point dose curve, average of 3-6 dose curve experiments. An excerpt: All compounds were screened using an in vitro based SMN2 promoter assay. We used NSC-34 cells, a hybrid cell line between mouse spinal cord cells and mouse neuroblastoma cells. NSC-34 cells harbor an expression plasmid containing a 3.4 kb promoter fragment of the SMN2 gene driving β-lactamase expression.
[…] […] CCF2-AM diffuses across the plasma membrane and is converted into an active β-lactamase substrate by cytoplasmic esterase. […] The fold induction is proportional to the extent of β-lactamase produced and in turn proportional to SMN2 promoter activation for a given compound relative to vehicle (DMSO) control. […] These values are used to rank activities of the compounds and derive structure activity relationship.
`CC(Oc1cccc2nc(N)nc(N)c12)c1nccs1` (stereo not drawn) [Example 58, 5-(1-Thiazol-2-ylethoxy)quinazoline-2,4-diamine] showed a 50% effective concentration (EC50) below 1 µM.
The result for `CC(Oc1cccc2nc(N)nc(N)c12)c1cccc(I)c1` (stereo not drawn) [Example 63, 5-[1-(3-Iodophenyl)-ethoxy]-quinazoline-2,4-diamine] reads below 1 µM.
`Nc1nc(N)c2c(OCCCc3ccc(Cl)cc3)cccc2n1` [Example 27, 5-[3-(4-Chlorophenyl)propoxy]quinazoline-2,4-diamine] came in with a concentration for a half-maximal effect (EC50) below 1 µM.
`C[C@@H](Oc1cccc2nc(N)nc(N)c12)c1ccccc1` [Example 56, 5-((R)-1-Phenylethoxy)quinazoline-2,4-diamine] showed an EC50 below 1 µM.
`C[C@H](Oc1cccc2nc(N)nc(N)c12)c1cccc(Cl)c1` [Example 162, 5-[(S)-1-(3-Chlorophenyl)ethoxy]quinazolin-2,4-diamine] returned an EC50 below 1 µM.
Consider `COCCOc1cccc2nc(N)nc(N)c12` [Example 15, 5-(2-Methoxyethoxy)quinazoline-2,4-diamine], for which the concentration for a half-maximal effect (EC50) was below 1 µM.
Molecule `Nc1nc(N)c2c(OC3CC4CCC3C4)cccc2n1` (stereo not drawn) [Example 124, 5-(Bicyclo[2.2.1]hept-2-yloxy)-quinazoline-2,4-diamine] registered an EC50 below 1 µM.
In turn, `Nc1nc(N)c2c(OCc3ccccc3Br)cccc2n1` [Example 74, 5-(2-Bromo-benzyloxy)-quinazoline-2,4-diamine] displayed an EC50 below 1 µM.
For `Nc1nc(N)c2c(OCc3ccc(C(F)(F)F)cc3)cccc2n1` [Example 100, 5-(4-Trifluoromethylbenzyloxy)-quinazoline-2,4-diamine], the 50% effective concentration (EC50) is below 1 µM.
For `Nc1nc(N)c2c(OC(CO)c3ccc(F)cc3)cccc2n1` (stereo not drawn) [Example 154, 2-(2,4-Diaminoquinazolin-5-yloxy)-2-(4-fluorophenyl)ethanol hydrochloride], the EC50 was below 1 µM.
On to `Nc1nc(N)c2c(OCC3CC4C=CC3C4)cccc2n1` (stereo not drawn) [Example 122, 5-(Bicyclo[2.2.1]hept-5-en-2-ylmethoxy)-quinazoline-2,4-diamine], for which the EC50 is below 1 µM.
`Cc1cc(COc2cccc3nc(N)nc(N)c23)no1` [Example 53, 5-(5-Methylisoxazol-3-ylmethoxy)quinazoline-2,4-diamine] registered a concentration for a half-maximal effect (EC50) below 1 µM.
As for `Nc1nc(N)c2c(OC3(c4cccc(Cl)c4)CCCCC3)cccc2n1` [Example 145, 5-[1-(3-Chlorophenyl)cyclohexyloxy]quinazoline-2,4-diamine], the EC50 is 1 to 5 µM.
Molecule `Nc1nc(N)c2c(OCc3c(F)cccc3F)cccc2n1` [Example 86, 5-(2,6-Difluorobenzyloxy)-quinazoline-2,4-diamine] registered an EC50 below 1 µM.
As for `C[C@@H](Oc1cccc2nc(N)nc(N)c12)c1cccc(Cl)c1` [Example 92, 5-[(R)-1-(3-Chlorophenyl)ethoxyl]quinazolin-2,4-diamine], the figure is below 1 µM.
In turn, `Nc1nc(N)c2c(-c3ccsc3)cccc2n1` [Example 90, 5-Thiophen-3-yl-quinazoline-2,4-diamine] gave an EC50 of 1 to 5 µM.
Take `Nc1nc(N)c2c(OCc3cccc(I)c3)cccc2n1` [Example 77, 5-(3-Iodo-benzyloxy)-quinazoline-2,4-diamine]: the EC50 was below 1 µM.
The result for `Nc1nc(N)c2c(OCc3cccc(Br)c3)cccc2n1` [Example 76, 5-(3-Bromobenzyloxy)quinazoline-2,4-diamine] reads below 1 µM.
`Nc1nc(N)c2c(OCc3ccccc3Cl)cccc2n1` [Example 6, 5-(2-Chlorobenzyloxy)quinazoline-2,4-diamine] gave an EC50 below 1 µM.
In turn, `COCOCC(Oc1cccc2nc(N)nc(N)c12)c1ccc(F)cc1` (stereo not drawn) [Example 153, 5-[1-(4-Fluorophenyl)-2-methoxymethoxyethoxy]quinazoline-2,4-diamine] showed an EC50 below 1 µM.
In turn, `CN1CCCC(COc2cccc3nc(N)nc(N)c23)C1` (stereo not drawn) [Example 20, 5-(1-Methylpiperidin-3-ylmethoxy)quinazoline-2,4-diamine] came in with an EC50 below 1 µM.
